Drawing on PubChem BioAssay (NCI), this text covers GI50 and TGI for ten molecules.

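96-well plates; 48 h exposure; 5 concentrations. Endpoints by linear interpolation between flanking doses. Not reached: highest tested concentration assigned. GI50 is the concentration that inhibits growth by half. TGI: total growth inhibition.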

Test in all cases: inhibition of tumour cell growth, NCI panel, 48 h
The subject of assay [1] is A498 renal.
In assay [2] the test system is HCC-2998 colon.
Assay [3] has as its system MCF7 breast.
Assay [4] deals with NCI-H460 lung.
In assay [5] the test system is NCI-H522 lung.
The test system of assay [6] is SK-MEL-28 melanoma.
Assay [7] relates to SK-MEL-5 melanoma.
Assay [8] concerns SNB-75 CNS.
Assay [9] relates to SW-620 colon.
Assay [10] has as its system RPMI-8226 leukemia.

Regarding `Cc1cc(N(CCNc2ccnc3cc(Cl)ccc23)Cc2ccco2)nc(Cl)n1`, the GI50 in [1] was 1.87 µM; in assay [2] it was 1.72 µM; in [3], 1.65 µM; in assay [4] it was 1.91 µM; in assay [5], 1.75 µM; in [6], 1.74 µM. Also, the GI50 in assay [7] was 1.72 µM; in assay [8], 1.47 µM; in assay [9], 1.75 µM. Moreover, the TGI was determined as 4.21 µM in assay [1]; 3.3 µM in [2]; 3.32 µM in assay [3]; 3.6 µM in assay [4]; 3.71 µM in assay [5]; 3.38 µM in [6]. Further, the TGI stood at 3.13 µM in [7], 2.97 µM in assay [8] and 3.46 µM in [9].
As for `CC1OC(OC2C(O[C@H]3CC[C@@]4(C)C(=CC[C@H]5[C@@H]6C[C@@H]7O[C@]8(CC[C@H](C)CN8)[C@@H](C)[C@@H]7[C@@]6(C)CC[C@@H]54)C3)OC(CO)C(O)C2OC2OC(CO)C(O)C(O)C2O)C(O)C(O)C1O` (stereo partly drawn), the TGI in assay [1] worked out at 42.9 µM; in assay [2] it was 32.2 µM; in assay [3], 32.9 µM; in assay [4] it was 31.6 µM; in assay [5], 30.3 µM; in [6], 38.5 µM. For the same molecule, the TGI in [7] was 33.6 µM; in assay [8] it was 29.2 µM; in [9], 39 µM.
For the molecule `CC(C)CCN=C(N)c1ccc(N2CCN(c3ccc(C(N)=NCCC(C)C)cc3)CC2)cc1`, the GI50 in assay [2] was 11.1 µM; in assay [3], 16.2 µM; in assay [4], 14.5 µM; in [5] it was 8.73 µM; in assay [6], 5.89 µM; in assay [7], 3.06 µM. Besides, the GI50 in assay [9] was 15.1 µM. Also, the TGI in assay [2] stood at 37.4 µM; in assay [3], 33.8 µM; in assay [4] it was 49.3 µM; in [5] it was 73.4 µM; in assay [6], 24.3 µM; in assay [7] it was 7.97 µM. For the same molecule, in assay [9], the TGI turned out to be 91.2 µM.
On to `CC1C[C@@H]2C(=O)NC(=O)[C@@H]2c2c1c1ccccc1n2C` (stereo partly drawn), for which the TGI in assay [1], in [2], in assay [4], in [5], in [10] and in assay [6] was greater than 100 µM throughout. The TGI in [7], in assay [8] and in assay [9] was greater than 100 µM throughout.
On to `CCc1cccc(C(C)C)c1NC(=O)C(=O)C(CC(=O)Nc1ccc(Cl)c(Cl)c1)C(=O)OC` (stereo not drawn), for which the TGI in assay [1], in [2], in assay [4], in assay [5], in [10] and in assay [6] was greater than 100 µM throughout. Further, the TGI was greater than 100 µM in assay [7], greater than 100 µM in assay [8] and 24.6 µM in [9].
In the case of `C=C1CCC2C(C)(C)CCC[C@]2(C)[C@H]1CO` (stereo partly drawn), the GI50 is 13.5 µM in assay [2]; 49.1 µM in assay [3]; 59.8 µM in assay [4]; 67.6 µM in assay [5]; greater than 100 µM in [6]; 68.2 µM in assay [7]. Further, the GI50 in [9] is greater than 100 µM. In addition, the TGI is 33 µM in [2]; greater than 100 µM in assay [3]; greater than 100 µM in assay [4]; greater than 100 µM in assay [5]; greater than 100 µM in assay [6]; greater than 100 µM in assay [7]. The molecule further gave a TGI in [9] greater than 100 µM.
For the molecule `Cc1c(COc2cc(OCc3cccc(C#N)c3)c(CN3C[C@H](O)C[C@@H]3C(=O)O)cc2Cl)cccc1-c1ccc2c(c1)OCCO2`, the GI50 is 18.7 µM in assay [1]; 15.6 µM in assay [2]; 4.66 µM in assay [3]; 14 µM in assay [4]; 19.8 µM in assay [5]; 13.3 µM in assay [6]. In addition, the GI50 in [7] was 2.14 µM; in assay [8] it was 13.6 µM; in assay [9] it was 16.7 µM. Further, the TGI in [1] stood at 33.3 µM; in assay [2] it was 29.2 µM; in assay [3], 19.3 µM; in [4], 29 µM; in assay [5] it was 42.5 µM; in assay [6], 26.1 µM. Also, the TGI in [7] turned out to be 5.13 µM; in [8], 27 µM; in [9] it was 31.5 µM.
`O=C1c2ccccc2C(=O)c2c1ccc(C1C(=O)c3ccccc3C1=O)c2-c1c(C2C(=O)c3ccccc3C2=O)ccc2c1C(=O)c1ccccc1C2=O`: the TGI in assay [1], in assay [3], in assay [4], in [5], in assay [10] and in [6] was greater than 100 µM in each case. Moreover, the TGI in assay [7], in [8] and in [9] was greater than 100 µM throughout.
Take `Nc1nc(-c2ccccc2)nc2c1[n+]([O-])c1ccccc1[n+]2[O-]`: the TGI in [1], in [2], in [3], in [4], in [5] and in assay [10] was greater than 100 µM in each case. Also, the TGI in assay [6], in [7] and in assay [9] was greater than 100 µM each time.
Turning to `O=[N+]([O-])c1cccc(C2ON2C2CCCCC2)c1` (stereo not drawn), the TGI in assay [1] is 90.1 µM; in [2], 30.9 µM; in [4], 32.5 µM; in [5], 33.5 µM; in [10], 7.98 µM; in assay [6] it was greater than 100 µM. Besides, the TGI is 33 µM in [7], greater than 100 µM in assay [8] and 24.7 µM in assay [9].
